Experimental data reported in US20200385371A1 (Propellon Therapeutics Inc., priority 2017, published 2020).
Where two headings read alike, the source gives them in different places.

Tests used:
WDR5 [1] = target: T1, WDR5 (Homo sapiens, UniProt P61964); assay: Fluorescence Polarization (FP) binding assay
Description: H3 (1-15) ([…]), and 9-Ala-FAM ((Ac)-[…]-(Ahx-Ahx)-K(5,6-FAM)) (where Ahx represents 6 amino hexanoic acid linkers) peptides for WDR5 were synthesized, N-terminal-labeled with isothiocyanate-fluorescein, and purified by Tufts University Core Services (Boston, Mass.). Compound binding assays were performed at a constant labeled peptide concentration of 30 or 20 nM for H3 (1-15) and 9-Ala-FAM respectively. WDR5 concentrations of 0.3 μM for H3 (1-15) and 0.05 μM for 9-Ala-FAM were used. For both the H3 (1-15) and 9-Ala-FAM peptides, 80 mM sodium phosphate buffer (pH 6.5), 20 mM KCl, and 0.008% Triton X-100 was used. For the H3 (1-15) peptide, FP assays were measured in 10 μl aliquots in 384-well Axygen plates using a Synergy 4 microplate reader (BioTek) with an excitation wavelength of 485 nm and emission wavelength of 528 nm. For the 9-Ala-FAM peptide, FP assays were measured in 125 μl aliquots in 96 well Microfluor plates using a ViewLux instrument (Perkin Elmer) with an excitation wavelength of 480 nm and emission wavelength of 540 nm. To determine Kdsp values, the data were fit to a hyperbolic function using Sigma Plot software (Systat Software). The Kdisp values represent the average of quadruplicate measurements.

WDR5 [2] = target: T1, WDR5; assay: Surface Plasmon Resonance (SPR) assay; format: binding; parameters: Full length WDR5 with an N-terminal His tag and C-terminal AviTag; His tag (N); made in house; host or cells: E. coli
Description: Exemplary compounds of the application were dissolved in 100% DMSO at 10 mM, assayed fresh, and then stored at −20° C. for repeat studies and other experiments. Full length WDR5 with an N-terminal His tag and C-terminal AviTag (Avidity Inc.) was expressed in E. coli with coexpression of BirA to biotin label the protein in vivo. Purification was via Ni-NTA.
SPR studies were performed using a Biacore™ T200 instrument (GE Health Sciences Inc.). Biotinylated WDR5 protein (approximately 3000RU) was stably captured to streptavidin coupled SA chips according to the manufacture's protocol (GE Health Sciences Inc.). The running buffer used was HBS-EP (20 mM Hepes pH 7.4, 150 mM NaCl, 3 mM EDTA, 0.05% P-20) plus 5% DMSO with a flow rate of 40 μl/min. For SPR analysis, 5 different concentrations of each exemplary compound of the application were sprayed into 96 or 384 well plates using an HP D300 digital dispenser. The concentration ranged from about 195 nM to about 12 nM in a two-fold series. […] Curve fitting and KD calculations were performed with the Biacore T200 Evalutation software (GE Health Sciences Inc).

[3] = Table 2, effect of difluoro substitution, read-out: KD (SPR)

Row | IC50 (WDR5 [1]) [nM] | Kd (WDR5 [2]; read-out: SPR Kd) [nM] | Kd (WDR5 [2]; [3]) [nM] | Compound
1 | 32.2 | 3.55 | – | C[C@@H]1CN(c2cc(F)c(-c3ccc(N4CCOCC4)cc3)c(F)c2NC(=O)c2c[nH]c(=O)cc2C(F)(F)F)C[C@H](C)N1C [Example 5, N-(2,6-difluoro-4′-morpholino-4-((3S,5R)-3,4,5-trimethylpiperazin-1-yl)-[1,1′-biphenyl]-3-yl)-6-oxo-4-(trifluoromethyl)-1,6-dihydropyridine-3-carboxamide]
2 | – | – | 48 | C[C@@H]1CN(c2ncc(-c3cc(F)c(N4C[C@@H](C)N(C)[C@@H](C)C4)c(NC(=O)c4c[nH]c(=O)cc4C(F)(F)F)c3)cn2)C[C@H](C)O1 [reference compound]
3 | 10.1 | 1.75 | – | C[C@@H]1CN(c2ncc(-c3c(F)cc(N4C[C@@H](C)N(C)[C@@H](C)C4)c(NC(=O)c4cn(C)c(=O)cc4C(F)(F)F)c3F)cn2)CCO1 [Example 17, N-(2,4-difluoro-3-(2-((R)-2-methylmorpholino)pyrimidin-5-yl)-6-((3S,5R)-3,4,5-trimethylpiperazin-1-yl)phenyl)-1-methyl-6-oxo-4-(trifluoromethyl)-1,6-dihydropyridine-3-carboxamide formic acid]
4 | 31.8 | 2.02 | – | C[C@@H]1CN(c2cc(F)c(-c3ccc(N4CCOCC4)nc3)c(F)c2NC(=O)c2c[nH]c(=O)cc2C(F)(F)F)C[C@H](C)N1C [Example 4, N-(2,4-difluoro-3-(6-morpholinopyridin-3-yl)-6-((3S,5R)-3,4,5-trimethylpiperazin-1-yl)phenyl)-6-oxo-4-(trifluoromethyl)-1,6-dihydropyridine-3-carboxamide]
5 | 10.2 | 1.88 | – | C[C@@H]1CN(c2cc(F)c(C3=CCCN(C(=O)OC4(C)CCC4)C3)c(F)c2NC(=O)c2c[nH]c(=O)cc2C(F)(F)F)C[C@H](C)N1C [Example 14, 1-Methylcyclobutyl 5-(2,6-difluoro-3-(6-oxo-4-(trifluoromethyl)-1,6-dihydropyridine-3-carboxamido)-4-((3S,5R)-3,4,5-trimethylpiperazin-1-yl)phenyl)-3,6-dihydropyridine-1(2H)-carboxylate]
6 | – | – | 2.9 | C[C@@H]1CN(c2ncc(-c3ccc(N4C[C@@H](C)N(C)[C@@H](C)C4)c(NC(=O)c4c[nH]c(=O)cc4C(F)(F)F)c3)cn2)C[C@H](C)O1 [reference compound]
7 | 23 | 1.74 | – | C[C@@H]1CN(c2cc(F)c(C3=CCCN(C(=O)OC4(C)CCC4)C3)c(F)c2NC(=O)c2c[nH]c(=O)cc2C(F)F)C[C@H](C)N1C [Example 22, 1-Methylcyclobutyl 5-(3-(4-(difluoromethyl)-6-oxo-1,6-dihydropyridine-3-carboxamido)-2,6-difluoro-4-((3S,5R)-3,4,5-trimethylpiperazin-1-yl)phenyl)-3,6-dihydropyridine-1(2H)-carboxylate]
8 | 31.4 | 2.83 | – | CC(C)OC(=O)N1CCC=C(c2c(F)cc(N3C[C@@H](C)N(C)[C@@H](C)C3)c(NC(=O)c3c[nH]c(=O)cc3C(F)F)c2F)C1 [Example 23, Isopropyl 5-(3-(4-(difluoromethyl)-6-oxo-1,6-dihydropyridine-3-carboxamido)-2,6-difluoro-4-((3S,5R)-3,4,5-trimethylpiperazin-1-yl)phenyl)-3,6-dihydropyridine-1(2H)-carboxylate]
9 | 24.6 | 1.42 | – | C[C@@H]1CN(c2cc(F)c(-c3cnc(N4CCO[C@@H](C)C4)nc3)c(F)c2NC(=O)c2cn(C)c(=O)cc2C(F)(F)F)C[C@H](C)N1C [Example 12, N-(2,4-difluoro-3-(2-((S)-2-methylmorpholino)pyrimidin-5-yl)-6-((3S,5R)-3,4,5-trimethylpiperazin-1-yl)phenyl)-1-methyl-6-oxo-4-(trifluoromethyl)-1,6-dihydropyridine-3-carboxamide formic Acid]
10 | 31.6 | 5.31 | – | C[C@@H]1CN(c2cc(F)c(C3=CCCN(C(=O)C(C)(C)C)C3)c(F)c2NC(=O)c2c[nH]c(=O)cc2C(F)(F)F)C[C@H](C)N1C [Example 19, N-(2,4-difluoro-3-(1-pivaloyl-1,2,5,6-tetrahydropyridin-3-yl)-6-((3S,5R)-3,4,5-trimethylpiperazin-1-yl)phenyl)-6-oxo-4-(trifluoromethyl)-1,6-dihydropyridine-3-carboxamide]
11 | – | 0.59 | – | C[C@@H]1CN(c2cc(F)c(-c3ccc(OCC4CC4)nc3)c(F)c2NC(=O)c2c[nH]c(=O)cc2C(F)(F)F)C[C@H](C)N1C [Example 1, N-(3-(6-(cycloproylmethoxy)pyridin-3-yl)-2,4-difluoro-6-((3S,5R)-3,4,5-trimethylpiperazin-1-yl)phenyl)-6-oxo-4-(trifluoromethyl)-1,6-dihydropyridine-3-carboxamide]
12 | 17.9 | – | – | C[C@@H]1CN(c2cc(F)c(-c3ccc(OCC4CC4)cc3)c(F)c2NC(=O)c2c[nH]c(=O)cc2C(F)(F)F)C[C@H](C)N1C [Example 7, N-(4′-(cyclopropylmethoxy)-2,6-difluoro-4-((3S,5R)-3,4,5-trimethylpiperazin-1-yl)-[1,1′-biphenyl]-3-yl)-6-oxo-4-(trifluoromethyl)-1,6-dihydropyridine-3-carboxamide]
13 | – | – | 1.8 | C[C@@H]1CN(c2ncc(-c3ccc(N4C[C@@H](C)N(C)[C@@H](C)C4)c(NC(=O)c4c[nH]c(=O)cc4C(F)(F)F)c3F)cn2)C[C@H](C)O1 [reference compound]
14 | 37.1 | 4.5 | – | C[C@@H]1CN(c2cc(F)c(C3=CCCN(c4ncccn4)C3)c(F)c2NC(=O)c2c[nH]c(=O)cc2C(F)F)C[C@H](C)N1C [Example 21, N-(2,4-difluoro-3-(1-(pyrimidin-2-yl)-1,2,5,6-tetrahydropyridin-3-yl)-6-((3S,5R)-3,4,5-trimethylpiperazin-1-yl)phenyl)-4-(difluoromethyl)-6-oxo-1,6-dihydropyridine-3-carboxamide]
15 | 32.9 | 2.83 | – | COCCOc1ccc(-c2c(F)cc(N3C[C@@H](C)N(C)[C@@H](C)C3)c(NC(=O)c3c[nH]c(=O)cc3C(F)(F)F)c2F)cn1 [Example 6, N-(2,4-difluoro-3-(6-(2-methoxyethoxy)pyridin-3-yl)-6-((3S,5R)-3,4,5-trimethylpiperazin-1-yl)phenyl)-6-oxo-4-(trifluoromethyl)-1,6-dihydropyridine-3-carboxamide]
16 | 11 | 1.71 | – | C[C@@H]1CN(c2ncc(-c3c(F)cc(N4C[C@@H](C)N(C)[C@@H](C)C4)c(NC(=O)c4ccc(F)cc4C(F)(F)F)c3F)cn2)CCO1 [Example 18, N-(2,4-difluoro-3-(2-((R)-2-methylmorpholino)pyrimidin-5-yl)-6-((3S,5R)-3,4,5-trimethylpiperazin-1-yl)phenyl)-4-fluoro-2-(trifluoromethyl)benzamide formic acid]
17 | 21.1 | 1.69 | – | C[C@@H]1CN(c2cc(F)c(C3=CCCN(c4ncccn4)C3)c(F)c2NC(=O)c2c[nH]c(=O)cc2C(F)(F)F)C[C@H](C)N1C [Example 15, N-(2,4-difluoro-3-(1-(pyrimidin-2-yl)-1,2,5,6-tetrahydropyridin-3-yl)-6-((3S,5R)-3,4,5-trimethylpiperazin-1-yl)phenyl)-6-oxo-4-(trifluoromethyl)-1,6-dihydropyridine-3-carboxamide]
18 | 26.6 | 3.39 | – | C[C@@H]1CN(c2cc(F)c(-c3ccnc(OCC4CC4)c3)c(F)c2NC(=O)c2c[nH]c(=O)cc2C(F)(F)F)C[C@H](C)N1C [Example 3, N-(3-(2-(cyclopropylmethoxy)pyridin-4-yl)-2,4-difluoro-6-((3S,5R)-3,4,5-trimethylpiperazin-1-yl)phenyl)-6-oxo-4-(trifluoromethyl)-1,6-dihydropyridine-3-carboxamide]
19 | 6.99 | 1.22 | – | C[C@@H]1CN(c2cc(F)c(-c3cnc(N4CCO[C@@H](C)C4)nc3)c(F)c2NC(=O)c2ccc(F)cc2C(F)(F)F)C[C@H](C)N1C [Example 16, N-(2,4-difluoro-3-(2-((S)-2-methylmorpholino)pyrimidin-5-yl)-6-((3S,5R)-3,4,5-trimethylpiperazin-1-yl)phenyl)-4-fluoro-2-(trifluoromethyl)benzamide formic acid]
